From PubChem BioAssay (NCI) come the findings set out here.

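Method: 48-hour compound exposure of cells in 96-well plates, five concentrations, linear interpolation of endpoints. Here, GI50 denotes the concentration required for 50% inhibition of growth. TGI denotes the concentration required for complete inhibition of growth.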 A value given as a limit tells only on which side of the number the result lay.

In the first experiment the test system is OVCAR-5 ovarian. The experiment can be described thus: NCI-60 cell line screen, 48 h.
The compound `NNC(=O)C(=O)NN=C(C(Cl)(Cl)CO)C(Cl)(Cl)CO` gave a TGI of 92.2 µM.

Take `O=C1N[C@@H]2CCCC[C@@H]2C12CCCCC2`: the TGI was above 100 µM.

As for `O=[N+]([O-])c1ccc(-c2ccc(C3=Nn4c(CNc5ccccc5Cl)nnc4SC3)o2)cc1`, the TGI was above 100 µM.

The subject of a further experiment is NCI-H522 lung. Put plainly: NCI-60 cell line screen, 48 h.
Turning to `CCOC(=O)C1(C)CCC(C(C(=O)O)C(=O)O)CC1=O` (centres undefined), the TGI was above 100 µM.

Compound `CC1NOC(=O)C1N=Nc1ccc(Cl)cc1Cl` (centres undefined) registered a TGI of 35.1 µM.

For the compound `CCOC(=O)/C(=C/c1ccccn1)C(=O)c1ccccc1`, the TGI amounted to 13.8 µM.

Compound `O=C(c1ccccc1)[C@H]1Nc2ccc(Cl)cc2[C@H]2CCC[C@@H]12` came in with a TGI of 59.9 µM.

The compound `COc1cc(/C=C2\NC(=O)C(Cc3cc(OC)c(OC)c(C)c3OC)N(C(C)=O)C2=O)c(OC)c(C)c1OC` (centres undefined) registered a TGI of 79.2 µM.

Turning to `COc1cc(C(=O)/C=C/c2cccc(Nc3ccnc4cc(Cl)ccc34)c2)cc(OC)c1OC`, the GI50 was 0.594 µM and the TGI is 2.25 µM.

In the case of `O=NN(CCCl)C(=O)NC1CCC(CC(=O)O)CC1` (centres undefined), the TGI was above 100 µM.

On to `NNC(=O)C(=O)NN=C(C(Cl)(Cl)CO)C(Cl)(Cl)CO`, for which the TGI was determined as 25 µM.

On to `COc1ccc2ccccc2c1C1=NC(C)(C)CO1`, for which the TGI was above 100 µM.

`CC(=O)OC1COC(N2CCc3cc([N+](=O)[O-])ccc32)C(OC(C)=O)C1OC(C)=O` (centres undefined) returned a TGI above 100 µM.

For `O=[N+]([O-])c1ccc(-c2ccc(C3=Nn4c(CNc5ccccc5Cl)nnc4SC3)o2)cc1`, the TGI was above 100 µM.

The next experiment has as its system SW-620 colon. The experiment can be described thus: NCI-60 cell line screen, 48 h.
In turn, `CCOC(=O)C1(C)CCC(C(C(=O)O)C(=O)O)CC1=O` (centres undefined) gave a TGI above 100 µM.

In turn, `CC1NOC(=O)C1N=Nc1ccc(Cl)cc1Cl` (centres undefined) yielded a TGI of 21.2 µM.

The compound `CCOC(=O)/C(=C/c1ccccn1)C(=O)c1ccccc1` showed a TGI of 32.6 µM.

Regarding `O=C(c1ccccc1)[C@H]1Nc2ccc(Cl)cc2[C@H]2CCC[C@@H]12`, the TGI is above 100 µM.

Regarding `COc1cc(/C=C2\NC(=O)C(Cc3cc(OC)c(OC)c(C)c3OC)N(C(C)=O)C2=O)c(OC)c(C)c1OC` (centres undefined), the TGI is above 100 µM.

Regarding `COc1cc(C(=O)/C=C/c2cccc(Nc3ccnc4cc(Cl)ccc34)c2)cc(OC)c1OC`, the GI50 was 0.445 µM and the TGI came to 2.44 µM.

Take `O=NN(CCCl)C(=O)NC1CCC(CC(=O)O)CC1` (centres undefined): the TGI was above 100 µM.

In turn, `NNC(=O)C(=O)NN=C(C(Cl)(Cl)CO)C(Cl)(Cl)CO` returned a TGI of 40.3 µM.

In the case of `O=C1N[C@@H]2CCCC[C@@H]2C12CCCCC2`, the TGI was above 100 µM.

As for `COc1ccc2ccccc2c1C1=NC(C)(C)CO1`, the TGI is above 100 µM.

In turn, `CC(=O)OC1COC(N2CCc3cc([N+](=O)[O-])ccc32)C(OC(C)=O)C1OC(C)=O` (centres undefined) showed a TGI above 100 µM.

As to `O=[N+]([O-])c1ccc(-c2ccc(C3=Nn4c(CNc5ccccc5Cl)nnc4SC3)o2)cc1`, the TGI is above 100 µM.

In the next experiment the test system is SR leukemia. Put plainly: NCI-60 cell line screen, 48 h.
`CCOC(=O)C1(C)CCC(C(C(=O)O)C(=O)O)CC1=O` (centres undefined) yielded a TGI above 100 µM.

For `CC1NOC(=O)C1N=Nc1ccc(Cl)cc1Cl` (centres undefined), the TGI stood at 71.9 µM.

`CCOC(=O)/C(=C/c1ccccn1)C(=O)c1ccccc1`: the TGI amounted to 14.2 µM.

As for `O=C(c1ccccc1)[C@H]1Nc2ccc(Cl)cc2[C@H]2CCC[C@@H]12`, the TGI is above 100 µM.

In turn, `COc1cc(/C=C2\NC(=O)C(Cc3cc(OC)c(OC)c(C)c3OC)N(C(C)=O)C2=O)c(OC)c(C)c1OC` (centres undefined) yielded a TGI above 100 µM.

As for `COc1cc(C(=O)/C=C/c2cccc(Nc3ccnc4cc(Cl)ccc34)c2)cc(OC)c1OC`, the GI50 was 0.324 µM and the TGI came to 1.42 µM.

The compound `O=NN(CCCl)C(=O)NC1CCC(CC(=O)O)CC1` (centres undefined) came in with a TGI above 100 µM.

`NNC(=O)C(=O)NN=C(C(Cl)(Cl)CO)C(Cl)(Cl)CO` came in with a TGI of 50.6 µM.

For the compound `O=C1N[C@@H]2CCCC[C@@H]2C12CCCCC2`, the TGI was above 100 µM.

Take `COc1ccc2ccccc2c1C1=NC(C)(C)CO1`: the TGI was above 100 µM.

As for `CC(=O)OC1COC(N2CCc3cc([N+](=O)[O-])ccc32)C(OC(C)=O)C1OC(C)=O` (centres undefined), the TGI is above 100 µM.

In turn, `O=[N+]([O-])c1ccc(-c2ccc(C3=Nn4c(CNc5ccccc5Cl)nnc4SC3)o2)cc1` had a TGI above 100 µM.

In the next experiment the test system is NCI-H460 lung. Put plainly: NCI-60 cell line screen, 48 h.
Compound `CCOC(=O)C1(C)CCC(C(C(=O)O)C(=O)O)CC1=O` (centres undefined) registered a TGI above 100 µM.

`CC1NOC(=O)C1N=Nc1ccc(Cl)cc1Cl` (centres undefined) registered a TGI of 59.5 µM.

In turn, `CCOC(=O)/C(=C/c1ccccn1)C(=O)c1ccccc1` came in with a TGI above 62.8 µM.

For `O=C(c1ccccc1)[C@H]1Nc2ccc(Cl)cc2[C@H]2CCC[C@@H]12`, the TGI was found to be 88 µM.

`COc1cc(/C=C2\NC(=O)C(Cc3cc(OC)c(OC)c(C)c3OC)N(C(C)=O)C2=O)c(OC)c(C)c1OC` (centres undefined) returned a TGI above 100 µM.

In the case of `COc1cc(C(=O)/C=C/c2cccc(Nc3ccnc4cc(Cl)ccc34)c2)cc(OC)c1OC`, the GI50 is 1.91 µM and the TGI was 4.49 µM.

`O=NN(CCCl)C(=O)NC1CCC(CC(=O)O)CC1` (centres undefined) showed a TGI above 100 µM.

In turn, `NNC(=O)C(=O)NN=C(C(Cl)(Cl)CO)C(Cl)(Cl)CO` came in with a TGI above 100 µM.

In the case of `O=C1N[C@@H]2CCCC[C@@H]2C12CCCCC2`, the TGI is above 100 µM.

Regarding `COc1ccc2ccccc2c1C1=NC(C)(C)CO1`, the TGI is above 100 µM.

As for `CC(=O)OC1COC(N2CCc3cc([N+](=O)[O-])ccc32)C(OC(C)=O)C1OC(C)=O` (centres undefined), the TGI was above 100 µM.

In the case of `O=[N+]([O-])c1ccc(-c2ccc(C3=Nn4c(CNc5ccccc5Cl)nnc4SC3)o2)cc1`, the TGI is above 100 µM.
